Test results taken from patent publication US8575158B2, “1-phenyl-substituted heterocyclyl derivatives and their use as prostaglandin D2 receptor modulators” (Actelion Pharmaceuticals Ltd., priority 2010, dated 2013).

Molecular target: T1, hCRTH2 receptor (Homo sapiens, UniProt Q9Y5Y4)
T1 construct: expressed in transfected cells; host or cells: HEK293
T1 sequence (Q9Y5Y4 1-395): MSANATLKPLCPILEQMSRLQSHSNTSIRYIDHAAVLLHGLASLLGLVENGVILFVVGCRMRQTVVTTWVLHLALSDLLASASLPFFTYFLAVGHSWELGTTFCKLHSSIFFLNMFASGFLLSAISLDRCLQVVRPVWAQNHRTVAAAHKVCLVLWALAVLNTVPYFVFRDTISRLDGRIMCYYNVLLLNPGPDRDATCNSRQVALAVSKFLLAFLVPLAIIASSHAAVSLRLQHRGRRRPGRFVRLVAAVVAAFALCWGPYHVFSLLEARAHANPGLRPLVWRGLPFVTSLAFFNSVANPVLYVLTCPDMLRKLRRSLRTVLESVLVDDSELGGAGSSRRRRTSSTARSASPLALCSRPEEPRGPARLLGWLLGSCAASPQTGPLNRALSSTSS
Assay: Radioligand displacement assay (3H-PGD2) on hCRTH2 receptor membranes
Type: binding
Conditions: antagonistic activity

[1] = 3H-PGD2 radioligand displacement, HEK293-hCRTH2 membranes
[2] = radioligand displacement (3H-PGD2), hCRTH2 receptor membranes
[3] = 3H-PGD2 displacement on HEK293-hCRTH2 membrane fragments

| SMILES | IC50 [1] [µM] | further results |
| --- | --- | --- |
| Cc1[nH]c2ccccc2c1CCC(=O)N1Cc2ccccc2C1c1cc(Cl)ccc1OCC(=O)O (racemic) [Example 510] | 0.18 |  |
| COc1ccc2[nH]cc(CCC(=O)N3Cc4ccccc4C3c3cc(Cl)ccc3OCC(=O)O)c2c1 (racemic) [Example 511] | 0.0148 |  |
| Cc1ccc(OCC(=O)N2Cc3ccccc3C2c2cc(Cl)ccc2OCC(=O)O)c(C)n1 (racemic) [Example 512] | 0.0425 |  |
| O=C(O)COc1ccc(Cl)cc1C1c2ccccc2CN1C(=O)CCN1CCCc2ccccc21 (racemic) [Example 515] | 0.0601 |  |
| COc1ccc2onc(CC(=O)N3Cc4ccccc4C3c3cc(Cl)ccc3OCC(=O)O)c2c1 (racemic) [Example 518] | 0.0201 |  |
| Cc1cn(CCC(=O)N2Cc3ccccc3C2c2cc(Cl)ccc2OCC(=O)O)c2ccccc12 (racemic) [Example 519] | 0.0374 |  |
| O=C(O)COc1ccc(Cl)cc1C1c2ccccc2CN1C(=O)COCc1ccccc1Cl (racemic) [Example 521] | 0.00911 |  |
| O=C(O)COc1ccc(Cl)cc1C1c2ccccc2CN1C(=O)CCOc1ccccc1F (racemic) [Example 522] | 0.0117 |  |
| O=C(O)COc1ccc(Cl)cc1C1c2ccccc2CN1C(=O)NCc1ccc(F)cc1 (racemic) [Example 554] | 0.0257 |  |
| O=C(O)COc1ccc(Cl)cc1C1c2ccc(Cl)c(Cl)c2CN1C(=O)OCc1ccccc1 (racemic) [Example 558] | 0.0169 |  |
| O=C(O)COc1ccc(Cl)cc1C1c2ccc(F)c(F)c2CN1C(=O)OCc1ccccc1 (racemic) [Example 559] | 0.0112 |  |
| O=C(OCc1ccccc1)N1CCc2ccccc2C1c1cc(Cl)ccc1OCc1noc(=O)[nH]1 (racemic) [Example 572, (±)-1-[5-Chloro-2-(5-oxo-4,5-dihydro-[1,2,4]oxadiazol-3-ylmethoxy)-phenyl]-3,4-dihydro-1H-isoquinoline-2-carboxylic acid benzyl ester] |  | IC50 [2]: 0.325 µM |
| O=C(OCc1ccccc1)N1CCc2ccccc2C1c1cc(Cl)ccc1OCc1cc(O)no1 (racemic) [Example 573, (±)-1-[5-Chloro-2-(3-hydroxy-isoxazol-5-ylmethoxy)-phenyl]-3,4-dihydro-1H-isoquinoline-2-carboxylic acid benzyl ester] |  | IC50 [2]: 0.0153 µM |
| O=C(O)COc1ccc(Cl)cc1C1c2ccccc2CCN1C(=O)[C@@H]1C[C@H]1c1ccccc1Cl (relative stereo) [Example 82, (4-Chloro-2-{2-[trans-2-(2-chloro-phenyl)-cyclopropanecarbonyl]-1,2,3,4-tetrahydro-isoquinolin-1-yl}-phenoxy)-acetic acid] |  | IC50 [3]: 0.0048 µM |
| O=C(O)COc1ccc(Cl)cc1C1c2cccc(F)c2CCN1C(=O)[C@@H]1C[C@H]1c1ccccc1 (relative stereo) [Example 117, {4-Chloro-2-[5-fluoro-2-(trans-2-phenyl-cyclopropanecarbonyl)-1,2,3,4-tetrahydro-isoquinolin-1-yl]-phenoxy}-acetic acid] |  | IC50 [3]: 0.0325 µM |
| O=C(O)COc1ccc(F)cc1[C@@H]1c2ccccc2CCN1C(=O)[C@@H]1C[C@H]1c1ccccc1 (single isomer, unassigned) [Example 29] |  | IC50 [3]: 0.00772 µM |
| O=C(O)COc1ccc(F)cc1[C@@H]1c2ccccc2CCN1C(=O)[C@@H]1C[C@H]1c1ccccc1 (single isomer, unassigned) [Example 30] |  | IC50 [3]: 0.912 µM |
| Cc1ccccc1C1CC1C(=O)N1CCc2ccccc2C1c1cc(Cl)ccc1OCC(=O)O (single isomer, unassigned) [Example 153, (±)-{4-Chloro-2-[2-((trans)-2-o-tolyl-cyclopropanecarbonyl)-1,2,3,4-tetrahydro-isoquinolin-1-yl]-phenoxy}-acetic acid (diastereosiomer 1)] |  | IC50 [3]: 0.123 µM |
| Cc1ccccc1C1CC1C(=O)N1CCc2ccccc2C1c1cc(Cl)ccc1OCC(=O)O (single isomer, unassigned) [Example 154, (±)-{4-Chloro-2-[2-((trans)-2-o-tolyl-cyclopropanecarbonyl)-1,2,3,4-tetrahydro-isoquinolin-1-yl]-phenoxy}-acetic acid (diastereosiomer 2)] |  | IC50 [3]: 0.00483 µM |
| O=C(O)COc1ccc(Cl)cc1C1c2ccccc2CCN1C(=O)C1CC1c1ccccc1C(F)(F)F (single isomer, unassigned) [Example 155, (±)-(4-Chloro-2-{2-[(trans)-2-(2-trifluoromethyl-phenyl)-cyclopropanecarbonyl]-1,2,3,4-tetrahydro-iso-quinolin-1-yl}-phenoxy)-acetic acid (diatereoisomer 1)] |  | IC50 [3]: 0.166 µM |
| O=C(O)COc1ccc(Cl)cc1C1c2ccccc2CCN1C(=O)C1CC1c1ccccc1C(F)(F)F (single isomer, unassigned) [Example 156, (±)-(4-Chloro-2-{2-[(trans)-2-(2-trifluoromethyl-phenyl)-cyclopropanecarbonyl]-1,2,3,4-tetrahydro-iso-quinolin-1-yl}-phenoxy)-acetic acid (diatereoisomer 2)] |  | IC50 [3]: 0.0142 µM |
| CC(C)[C@@H]1C[C@H]1C(=O)N1CCc2ccccc2[C@H]1c1cc(Cl)ccc1OCC(=O)O (single isomer, unassigned) [Example 464] | 0.789 |  |
| CC(C)[C@@H]1C[C@H]1C(=O)N1CCc2ccccc2[C@H]1c1cc(Cl)ccc1OCC(=O)O (single isomer, unassigned) [Example 465] | 0.0535 |  |
| O=C(O)COc1ccc(Cl)cc1C1c2ccccc2CN1C(=O)CCn1ncc2cc(F)ccc21 (single isomer, unassigned) [Example 527, (4-Chloro-2-{2-[3-(5-fluoro-indazol-1-yl)-propionyl]-2,3-dihydro-1H-isoindol-1-yl}-phenoxy)-acetic acid] | 0.00812 |  |
| Cc1nn(CCC(=O)N2Cc3ccccc3C2c2cc(Cl)ccc2OCC(=O)O)c2c(F)cccc12 (single isomer, unassigned) [Example 530] | 0.101 |  |
| Cc1nn(CCC(=O)N2Cc3ccccc3C2c2cc(Cl)ccc2OCC(=O)O)c2cc(F)ccc12 (single isomer, unassigned) [Example 531, (4-Chloro-2-{2-[3-(6-fluoro-3-methyl-indazol-1-yl)-propionyl]-2,3-dihydro-1H-isoindol-1-yl}-phenoxy)-acetic acid] | 0.0309 |  |

More lines, main results first:

| IC50 [1] [µM] | SMILES | further results |
| --- | --- | --- |
| 0.0788 | Cc1ccccc1CCC(=O)N1Cc2ccccc2C1c1cc(Cl)ccc1OCC(=O)O (racemic) [Example 506] |  |
| 0.129 | O=C(O)COc1ccc(Cl)cc1C1c2ccccc2CN1C(=O)Cn1ccc2ccccc21 (racemic) [Example 507] |  |
| 0.127 | CCn1c(C)c(CCC(=O)N2Cc3ccccc3C2c2cc(Cl)ccc2OCC(=O)O)c2ccccc21 (racemic) [Example 508] |  |
| 0.0378 | O=C(O)COc1ccc(Cl)cc1C1c2ccccc2CN1C(=O)COc1cccc2cccnc12 (racemic) [Example 509] |  |
| 0.0259 | Cn1cc(CCC(=O)N2Cc3ccccc3C2c2cc(Cl)ccc2OCC(=O)O)c2ccccc21 (racemic) [Example 513] |  |
| 0.0388 | O=C(O)COc1ccc(Cl)cc1C1c2ccccc2CN1C(=O)CCN1CCc2ccccc21 (racemic) [Example 514] |  |
| 0.0125 | O=C(O)COc1ccc(Cl)cc1C1c2ccccc2CN1C(=O)CCn1ncc2ccccc21 (racemic) [Example 516] |  |
| 0.123 | O=C(O)COc1ccc(Cl)cc1C1c2ccccc2CN1C(=O)CCOc1cccc(F)c1 (racemic) [Example 517] |  |
| 0.13 | O=C(O)COc1ccc(Cl)cc1C1c2ccccc2CN1C(=O)CCOc1ccc(F)cc1 (racemic) [Example 520] |  |
| 0.00453 | O=C(O)COc1ccc(Cl)cc1C1c2ccc(F)cc2CN1C(=O)CCn1ncc2ccccc21 (racemic) [Example 526, (±)-{4-Chloro-2-[5-fluoro-2-(3-indazol-1-yl-propionyl)-2,3-dihydro-1H-isoindol-1-yl]-phenoxy}-acetic acid] |  |
| 0.0196 | O=C(O)COc1ccc(Cl)cc1C1c2ccccc2CN1C(=O)NCc1ccccc1F (racemic) [Example 552] |  |
| 0.0174 | O=C(O)COc1ccc(Cl)cc1C1c2ccccc2CN1C(=O)NCc1cccc(F)c1 (racemic) [Example 553] |  |
| 0.0145 | O=C(O)COc1ccc(Cl)cc1C1c2ccccc2CN1C(=O)NCc1ccccc1 (racemic) [Example 555] |  |
| 0.0117 | O=C(O)COc1ccc(Cl)cc1C1c2ccccc2CN1C(=O)NCCc1ccccc1 (racemic) [Example 556] |  |
| 0.0137 | O=C(O)COc1ccc(Cl)cc1C1c2ccccc2CN1C(=O)NCc1ccccc1Cl (racemic) [Example 557] |  |
| 0.0332 | Cc1nn(CCC(=O)N2Cc3ccccc3C2c2cc(Cl)ccc2OCC(=O)O)c2cccc(F)c12 (single isomer, unassigned) [Example 528, (4-Chloro-2-{2-[3-(4-fluoro-3-methyl-indazol-1-yl)-propionyl]-2,3-dihydro-1H-isoindol-1-yl}-phenoxy)-acetic acid] |  |
| 0.078 | Cc1nn(CCC(=O)N2Cc3ccccc3C2c2cc(Cl)ccc2OCC(=O)O)c2cccc(Cl)c12 (single isomer, unassigned) [Example 529] |  |
| 0.0407 | Cc1nn(CCC(=O)N2Cc3ccccc3C2c2cc(Cl)ccc2OCC(=O)O)c2cc(Cl)ccc12 (single isomer, unassigned) [Example 532, (4-Chloro-2-{2-[3-(6-chloro-3-methyl-indazol-1-yl)-propionyl]-2,3-dihydro-1H-isoindol-1-yl}-phenoxy)-acetic acid] |  |
